Measured values as given in patent publication US7915297B2, “Isoxazole derivatives and use thereof” (SK Holdings Co., Ltd., priority 2005, dated 2011).

Experiments:
[1] = tested on: Wnt/β-catenin signaling (β-catenin activity) in HEK293 cell line; assay: Cell-based Wnt agonist screening, TCF luciferase reporter, HEK293 (TCF-FL); parameters: species or system human; details: Homo sapiens, HEK293, 24 h, % of LiCl (20 mM), 24 h, read-out: Max. Activity (%); for Emax at 30 µM: Conc. 30 μM; for Emax at 120 µM: Conc. 120 μM; for Emax at 10 µM: Conc. 10 μM
In short: (§1)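 HEK293 and SW480 lines stably carried a 5X TCF firefly luciferase reporter under G418 selection. Cells (8,000–15,000/well, RPMI 1640 with 5% FBS) were grown 24 h, then treated with compound for 24 h. Luciferase activity was expressed as percent of the 20 mM LiCl positive control.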

[2] = tested on: Wnt/β-catenin signaling (β-catenin activity) in SW480 cell line; assay: Cell-based Wnt agonist screening, TCF luciferase reporter, SW480 (TCF-FL); parameters: species or system human; details: Homo sapiens, % of LiCl (20 mM), 24 h, read-out: Max. Activity (%); for Emax at 30 µM: Con. 30 μM; for Emax at 120 µM: Con. 120 μM; for Emax at 10 µM: Con. 10 μM; for Emax at 1 µM: Con. 1 μM
In short: as §1

[3] = tested on: ST-2, a murine bone marrow stromal T cell; assay: Differentiation of ST2 cell line into osteoblasts, alkaline phosphatase activity; assay type: cell-based; details: Mus musculus, 96 h; ST-2 cells, 11 μM compound, 4 days; control treated only with ascorbic acid and β-glycerolphosphate = 100; read-out: ALP Activity (% Control)
Procedure: The derivatives synthesized according to the present invention were assayed for their ability to differentiate stem cells into osteoblasts. In this regard, ST-2, a murine bone marrow stromal T cell, was used to measure the activity of bone-specific alkaline phosphatase, a marker of early-stage osteoblast differentiation. In detail, the cell line was cultured in an MEM supplemented with penicillin-streptomycin (100 Units/mL) and heat-inactivated 5% fetal bovine serum under standard culture conditions (5% CO2, 37° C., 100% relative humidity). […] The suspension was diluted with the same medium to adjust the cell count to 5,000˜10,000 cells per well, and was moved in a 96-well microtiter, subsequently. After being incubated for 24 hrs, the cells were treated in a medium containing 50 μg/ml of ascorbic acid and 5 mM of β-glycerolphosphate with various concentrations of the isoxazole derivatives synthesized in Preparation Examples. During incubation for one to nine days, the Alkaline phosphatase activity was analyzed using a […] Assay kit (Promega, U.S.A.) according to the protocol described in the manual provided by the manufacturer. The activities were measured in cells which had been incubated at 11 μM of each of the compounds for 4 days. Data on the activities of the isoxazole derivatives synthesized are given in Tables 44 to 47 and are expressed as percentages of ALP relative to that measured in the control, which was treated only with ascorbic acid and β-glycerolphosphate. ALP activities according to the concentrations of Derivative (1) are depicted in FIG. 5.

SMILES | Emax at 30 µM [2] [%] | activity at 11 µM [3] [%] | Emax at 120 µM [2] [%] | also measured
Cc1ccc(CCNC(=O)c2cc(-c3ccco3)on2)cc1 [Derivative (15), 5-furan-2-yl-isoxazole-3-carboxylic acid (2-p-tolyl-ethyl)-amide] | < 20 | 278 |  | Emax at 30 µM [1]: < 20%
COc1ccc(CCNC(=O)c2cc(-c3ccco3)on2)cc1 [Derivative (21), 5-furan-2-yl-isoxazole-3-carboxylic acid [2-(4-methoxy-phenyl)-ethyl]-amide] | 287 | 334 |  | Emax at 30 µM [1]: 23%
O=C(NCCc1ccc(O)c(O)c1)c1cc(-c2ccco2)on1 [Derivative (28), 5-furan-2-yl-isoxazole-3-carboxylic acid [2-(3,4-dihydroxy-phenyl)-ethyl]-amide] | < 20 | 436 |  | Emax at 30 µM [1]: < 20%
Cc1nccn1CCNC(=O)c1cc(-c2ccco2)on1 [Derivative (35), 5-furan-2-yl-isoxazole-3-carboxylic acid [2-(2-methyl-imidazol-1-yl)-ethyl]-amide] |  | 686 | 130 | Emax at 120 µM [1]: 35%
Cc1cncn1CCNC(=O)c1cc(-c2ccco2)on1 [Derivative (36), 5-furan-2-yl-isoxazole-3-carboxylic acid [2-(5-methyl-imidazol-1-yl)-ethyl]-amide] |  | 396 | 283 | Emax at 120 µM [1]: 71%
O=C(NCCn1ccnc1)c1cc(-c2ccccc2F)on1 [Derivative (85), 5-(2-fluoro-phenyl)-isoxazole-3-carboxylic acid (2-imidazol-1-yl-ethyl)-amide] | < 20 | 640 |  | Emax at 30 µM [1]: < 20%
O=C(NCCn1ccnc1)c1cc(-c2ccc(F)cc2)on1 [Derivative (86), 5-(4-fluoro-phenyl)-isoxazole-3-carboxylic acid (2-imidazol-1-yl-ethyl)-amide] | < 20 | 546 |  | Emax at 30 µM [1]: < 20%
O=C(NCCn1cccn1)c1cc(-c2ccc(F)cc2)on1 [Derivative (87), 5-(4-fluoro-phenyl)-isoxazole-3-carboxylic acid (2-pyrazol-1-yl-ethyl)-amide] | < 20 | 428 |  | Emax at 30 µM [1]: < 20%
O=C(NCCCn1cncn1)c1cc(-c2ccc(Cl)cc2)on1 [Derivative (96), 5-(4-chloro-phenyl)-isoxazole-3-carboxylic acid (3-[1,2,4]triazol-1-yl-propyl)-amide] |  | 97 | 80 | Emax at 120 µM [1]: 80%
O=C(NCCn1cncn1)c1cc(-c2ccc(Cl)cc2)on1 [Derivative (97), 5-(4-chloro-phenyl)-isoxazole-3-carboxylic acid (2-[1,2,4]triazol-1-yl-ethyl)-amide] |  | 91 |  | Emax at 10 µM [1]: 53%; Emax at 10 µM [2]: 53%
O=C(NCCCn1ccnc1)c1cc(-c2ccc(Cl)cc2)on1 [Derivative (98), 5-(4-chloro-phenyl)-isoxazole-3-carboxylic acid (3-imidazol-1-yl-propyl)-amide] |  | 90 | 54 | Emax at 120 µM [1]: 54%
COc1ccc(-c2cc(C(=O)NCCCn3ccnc3)no2)cc1 [Derivative (101), 5-(4-methoxy-phenyl)-isoxazole-3-carboxylic acid (3-imidazol-1-yl-propyl)-amide] |  | 592 | 205 | Emax at 120 µM [1]: 205%
COc1ccc(-c2cc(C(=O)NCCc3ccncc3)no2)cc1 [Derivative (102), 5-(4-methoxy-phenyl)-isoxazole-3-carboxylic acid (2-pyridin-4-yl-ethyl)-amide] |  | 148 | 73 | Emax at 120 µM [1]: 73%
COc1cccc(-c2cc(C(=O)NCCc3ccncc3)no2)c1 [Derivative (103), 5-(3-methoxy-phenyl)-isoxazole-3-carboxylic acid (2-pyridin-4-yl-ethyl)-amide] |  | 103 |  | Emax at 10 µM [1]: 42%; Emax at 10 µM [2]: 42%
COc1ccccc1-c1cc(C(=O)NCCc2ccncc2)no1 [Derivative (104), 5-(2-methoxy-phenyl)-isoxazole-3-carboxylic acid (2-pyridin-4-yl-ethyl)-amide] |  | 103 |  | Emax at 30 µM [1]: 35%; Emax at 60 µM ([1]; Conc. 60 μM): 884%; Emax at 60 µM ([2]; Con. 60 μM): 884%
COc1ccc(NCCNC(=O)c2cc(-c3ccco3)on2)cc1 [Derivative (200), 5-furan-2-yl-isoxazole-3-carboxylic acid [2-(4-methoxy-phenylamino)-ethyl]-amide] | 106 | 162 |  | 
O=C(NCCCNc1ccccc1)c1cc(-c2ccco2)on1 [Derivative (201), 5-furan-2-yl-isoxazole-3-carboxylic acid (3-phenylamino-propyl)-amide] |  | 859 |  | Emax at 1 µM [2]: 545%
CN(CCNC(=O)c1cc(-c2ccco2)on1)c1ccccc1 [Derivative (202), 5-furan-2-yl-isoxazole-3-carboxylic acid [2-(methyl-phenyl-amino)-ethyl]-amide] | 185 | 109 |  | 
CN(CCCNC(=O)c1cc(-c2ccco2)on1)c1ccccc1 [Derivative (203), 5-furan-2-yl-isoxazole-3-carboxylic acid [3-(methyl-phenyl-amino)-propyl]-amide] | 851 | 260 |  | 
O=C(NCCNc1ccccn1)c1cc(-c2ccco2)on1 [Derivative (204), 5-furan-2-yl-isoxazole-3-carboxylic acid [2-(pyridin-2-ylamino)-ethyl]-amide] |  | 150 | 369 | 
O=C(CNC(=O)c1cc(-c2ccco2)on1)c1ccccc1 [Derivative (205), 5-furan-2-yl-isoxazole-3-carboxylic acid (2-oxo-2-phenyl-ethyl)-amide] |  | 58 |  | Emax at 10 µM [2]: 59%
O=C(CCNC(=O)c1cc(-c2cccs2)on1)c1ccccc1 [Derivative (206), 5-thiophen-2-yl-isoxazole-3-carboxylic acid (3-oxo-3-phenyl-propyl)-amide] |  | 772 | 584 | 
O=C(CNC(=O)c1cc(-c2ccco2)on1)Nc1ccccc1 [Derivative (207), 5-furan-2-yl-isoxazole-3-carboxylic acid phenylcarbamoylmethyl-amide] |  | 47 | 34 | 
O=C(CNC(=O)c1cc(-c2ccco2)on1)Nc1ccccn1 [Derivative (208), 5-furan-2-yl-isoxazole-3-carboxylic acid (pyridin-2-ylcarbamoylmethyl)-amide] | 110 | 57 |  | 
O=C(NCCNC(=O)c1cc(-c2cccs2)on1)c1ccccc1 [Derivative (210), 5-thiophen-2-yl-isoxazole-3-carboxylic acid (2-benzoylamino-ethyl)-amide] |  | 202 |  | Emax at 1 µM [2]: 475%
O=C(NCCNC(=O)c1cc(-c2cccs2)on1)Nc1ccccc1 [Derivative (211), 5-thiophen-2-yl-isoxazole-3-carboxylic acid [2-(3-phenyl-urido)-ethyl]-amide] | 158 | 204 |  | 
O=C(NCCOc1ccccc1)c1cc(-c2cccs2)on1 [Derivative (215), 5-thiophen-2-yl-isoxazole-3-carboxylic acid (2-phenoxy-ethyl)-amide] | 90 | 162 |  | 
O=C(NCCSc1ccccc1)c1cc(-c2cccs2)on1 [Derivative (218), 5-thiophen-2-yl-isoxazole-3-carboxylic acid (2-phenylsulfanyl-ethyl)-amide] | 55 | 128 |  | 
O=C(NCCS(=O)(=O)Nc1ccccc1)c1cc(-c2cccs2)on1 [Derivative (220), 5-thiophen-2-yl-isoxazole-3-carboxylic acid (2-phenylsulfamoyl-ethyl)-amide] |  | 187 | 182 | 
